For this assay, the target named is cGAS (Homo sapiens, UniProt Q8N884). Description: cGAS enzymatic assay (FP/TR-FRET detection of cGAMP). The format is biochemical. Also on record: The cGAS assay was used to screen 100,000 compounds with full-length human cGAS; 6xHis; made in house. Particulars: cGAS (30 nM). On the procedure:
Some exemplary compounds of the disclosure were tested for inhibition of cGAS (30 nM). The results are provided in Table 1 where “A” indicates an IC50 of less than 100 nM, “B” indicates an IC50 of greater than 100 nM and less than 500 nM, “C” indicates an IC50 of greater than 500 nM and less than 1 μM, “D” indicates an IC50 of greater than 1 μM and less than 10 μM, and “E” indicates an IC50 of greater than 10 μM.
A homogenous cGAS enzymatic assay was developed with fluorescence polarization (FP) and time-resolved Forster resonance energy transfer (TR-FRET) readouts (FIG. 2A-2D). The cGAS assay was used to screen 100,000 compounds with full-length human cGAS (FIG. 2E), resulting in the identification of the novel chemotype of the disclosure, two of which are further developed in a structure-driven hit-to-lead study (Table 3, below). The assay performance was robust, as indicated by respective Z and Z′ values of 0.59 and 0.63 in the screen; compounds with polarization values greater than three SDs from the mean were considered hits; a scatterplot from 10 plates (3,200 compounds) is shown in FIG. 2D.
Biochemical and biophysical analysis: Potency and MOA studies, including Mn^2+ sensitivity, are performed using the cGAS enzymatic assay. Dose response experiments are used to determine IC50 values under basal conditions (5 mM MgCl2, 100 μM ATP/GTP), and with the addition of physiological levels of Mn (0.2 mM) using human and mouse cGAS. Ligand optimization is driven by potency with the human enzyme; potency with mouse cGAS informs selection of an appropriate disease model for efficacy studies. Competition with ATP and GTP is assessed by comparing basal IC50 values to those in the presence of saturating ATP or GTP, and subsequently confirmed by measuring velocity vs. substrate at varying ATP or GTP levels. Inhibitor residence times (1/koff) are used as a key parameter for prioritizing compounds and driving SAR, because a longer residence time often results from an allosteric mechanism, and can also correlate with improved cellular activity. The cGAS enzymatic assay is used with the jump dilution method to measure residence times (inhibitor dissociation rates), as described for kinases using the very similar ADP assay. Biophysical methods, including SPR and TSA, are used as orthologous methods for residence time measurements and kd estimates.
On the technique in general: In TR-FRET formats the signal depends on donor and acceptor labels being close together.

The mark [1] stands for this setting: with Mn^2+, read-out: Inhibition cGAS + Mn^2+.

Read-outs that look alike come from different tables or passages of the source. A value given as a limit tells only on which side of the number the result lay.

cGAS, sequence (Q8N884 whole entry): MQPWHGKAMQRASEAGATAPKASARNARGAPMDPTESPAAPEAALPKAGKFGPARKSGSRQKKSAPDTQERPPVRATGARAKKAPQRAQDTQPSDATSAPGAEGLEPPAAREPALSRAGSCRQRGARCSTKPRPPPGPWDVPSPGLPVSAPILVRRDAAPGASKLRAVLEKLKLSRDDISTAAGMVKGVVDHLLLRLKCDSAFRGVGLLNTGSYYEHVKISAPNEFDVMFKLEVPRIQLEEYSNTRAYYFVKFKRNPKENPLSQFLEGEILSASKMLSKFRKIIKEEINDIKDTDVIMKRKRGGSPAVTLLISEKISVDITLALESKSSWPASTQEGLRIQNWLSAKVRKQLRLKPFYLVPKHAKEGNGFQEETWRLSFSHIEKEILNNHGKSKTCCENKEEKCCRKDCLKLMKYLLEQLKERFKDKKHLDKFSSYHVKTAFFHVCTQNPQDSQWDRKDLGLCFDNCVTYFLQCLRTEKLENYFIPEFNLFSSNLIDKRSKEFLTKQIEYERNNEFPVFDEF

Consider `Cc1nc(N2C[C@@H](NC(=O)Cc3c[nH]cn3)C[C@H]2C(=O)O)c2oc3ccccc3c2n1` [Compound 40, (2S,4S)-4-(2-(1H-imidazol-4-yl)acetamido)-1-(2-methylbenzofuro[3,2-d]pyrimidin-4-yl)pyrrolidine-2-carboxylic acid], for which the IC50 (read-out: Inhibition cGAS) lay in the range of 500 to 1000 nM.

With `Cc1nc(N2C[C@@H](Cc3nnn[nH]3)C[C@H]2CO)c2oc3ccccc3c2n1` [Compound 65, ((2S,4R)-4-((1H-tetrazol-5-yl)methyl)-1-(2-methylbenzofuro[3,2-d]pyrimidin-4-yl)pyrrolidin-2-yl)methanol], the IC50 under setting [1] was in the range of 1000 to 10000 nM and the IC50 (read-out: Inhibition cGAS) is 1000 to 10000 nM.

In the case of `Cc1nc(N2C[C@@H](N(C)C(=O)Cc3ccncc3)C[C@H]2C(=O)O)c2oc3ccccc3c2n1` [Compound 60, (2S,4S)-4-(N-methyl-2-(pyridin-4-yl)acetamido)-1-(2-methylbenzofuro[3,2-d]pyrimidin-4-yl)pyrrolidine-2-carboxylic acid], the IC50 (read-out: Inhibition cGAS) lay within 500 to 1000 nM.

For `CO[C@H]1C[C@@H](C(=O)O)N(c2nc(C)nc3c2oc2ccccc23)C1` [Compound 23, (2S,4S)-4-methoxy-1-(2-methylbenzofuro[3,2-d]pyrimidin-4-yl)pyrrolidine-2-carboxylic acid], the IC50 is > 10000 nM under setting [1] and 1000 to 10000 nM (read-out: Inhibition cGAS).

With `Cc1nc(N2C[C@@H](N(C)c3n[nH]cc3C)C[C@H]2C(=O)O)c2oc3ccccc3c2n1` [Compound 64, (2S,4S)-4-(methyl(4-methyl-1H-pyrazol-3-yl)amino)-1-(2-methylbenzofuro[3,2-d]pyrimidin-4-yl)pyrrolidine-2-carboxylic acid], the IC50 was in the range of 1000 to 10000 nM under setting [1] and 1000 to 10000 nM (read-out: Inhibition cGAS).

For `Cc1nc(N2C[C@@H](CC(=O)Nc3ccccn3)C[C@H]2C(=O)O)c2oc3ccccc3c2n1` [Compound 46, (2S,4R)-1-(2-methylbenzofuro[3,2-d]pyrimidin-4-yl)-4-(2-oxo-2-(pyridin-2-ylamino)ethyl)pyrrolidine-2-carboxylic acid], the IC50 (read-out: Inhibition cGAS) fell in the range of 1000 to 10000 nM.

Regarding `Cc1nc(N2C[C@@H](Nc3n[nH]cc3-c3ccccc3)CC2C(=O)O)c2oc3cc(F)ccc3c2n1` (stereo in doubt) [Compound 56, (2R,4S)-1-(7-fluoro-2-methylbenzofuro[3,2-d]pyrimidin-4-yl)-4-((4-phenyl-1H-pyrazol-3-yl)amino)pyrrolidine-2-carboxylic acid], the IC50 runs as follows: under setting [1], 1000 to 10000 nM; (read-out: Inhibition cGAS) 500 to 1000 nM.

`Cc1nc(N2C[C@@H](NC3CCCNC3)C[C@H]2C(=O)O)c2oc3ccccc3c2n1` (stereo partly drawn) [Compound 37, (2S,4S)-1-(2-methylbenzofuro[3,2-d]pyrimidin-4-yl)-4-(piperidin-3-ylamino)pyrrolidine-2-carboxylic acid]: for the setting “read-out: Inhibition cGAS”, the IC50 was 500 to 1000 nM.

As for `Cc1nc(NCC(=O)O)c2oc3ccccc3c2n1` [Compound 2, (2-methylbenzofuro[3,2-d]pyrimidin-4-yl)glycine], the IC50 reads like this: under setting [1], > 10000 nM; (read-out: Inhibition cGAS) 1000 to 10000 nM.

On to `O=C(O)[C@@H]1CCCN1c1nc(C2CCCC2)nc2c1oc1ccccc12` [Compound 12, (2-cyclopentylbenzofuro[3,2-d]pyrimidin-4-yl)-L-proline], for which the IC50 was > 10000 nM under setting [1] and > 10000 nM (read-out: Inhibition cGAS).

In the case of `CC(C)(C(=O)N[C@H]1C[C@@H](C(=O)O)N(c2nc(C(F)(F)F)nc3c2oc2ccccc23)C1)c1cn[nH]c1` [Compound 58, (2S,4S)-4-(2-methyl-2-(1H-pyrazol-4-yl)propanamido)-1-(2-(trifluoromethyl)benzofuro[3,2-d]pyrimidin-4-yl)pyrrolidine-2-carboxylic acid], the IC50 is, setting by setting: under setting [1], 1000 to 10000 nM; (read-out: Inhibition cGAS) 500 to 1000 nM.

As to `Cc1nc(N2C[C@@H](NC(=O)C(C)(C)c3ccnc(C(F)(F)F)c3)C[C@H]2C(=O)O)c2oc3ccccc3c2n1` [Compound 61, (2S,4S)-4-(2-methyl-2-(2-(trifluoromethyl)pyridin-4-yl)propanamido)-1-(2-methylbenzofuro[3,2-d]pyrimidin-4-yl)pyrrolidine-2-carboxylic acid], the IC50 by setting is: under setting [1], 1000 to 10000 nM; (read-out: Inhibition cGAS) 500 to 1000 nM.

For `Cc1nc(N2C[C@@H](NC(=O)Cc3cc[nH]n3)C[C@H]2C(=O)O)c2oc3ccccc3c2n1` [Compound 31, (2S,4S)-4-(2-(1H-pyrazol-3-yl)acetamido)-1-(2-methylbenzofuro[3,2-d]pyrimidin-4-yl)pyrrolidine-2-carboxylic acid], the “Inhibition cGAS” value is recorded as “B, D”.

Take `Cc1nc(N2C[C@@H](NC(=O)C(C)(C)c3cn[nH]c3)C[C@H]2C(=O)O)c2oc3cc(F)ccc3c2n1` [Compound 57, (2S,4S)-1-(7-fluoro-2-methylbenzofuro[3,2-d]pyrimidin-4-yl)-4-(2-methyl-2-(1H-pyrazol-4-yl)propanamido)pyrrolidine-2-carboxylic acid]: the IC50 was 1000 to 10000 nM under setting [1] and 100 to 500 nM (read-out: Inhibition cGAS).

As for `Cc1nc(N2C[C@@H](NC(=O)Cc3ccc(N)nc3)C[C@H]2C(=O)O)c2oc3ccccc3c2n1` [Compound 33, (2S,4S)-4-(2-(6-aminopyridin-3-yl)acetamido)-1-(2-methylbenzofuro[3,2-d]pyrimidin-4-yl)pyrrolidine-2-carboxylic acid], under “read-out: Inhibition cGAS”, the IC50 lay within 100 to 500 nM.

In the case of `Cc1nc(N2C[C@@H](NC(=O)Cc3ccnc(C(N)=O)c3)C[C@H]2C(=O)O)c2oc3ccccc3c2n1` [Compound 50, (2S,4S)-4-(2-(2-carbamoylpyridin-4-yl)acetamido)-1-(2-methylbenzofuro[3,2-d]pyrimidin-4-yl)pyrrolidine-2-carboxylic acid], the IC50 (read-out: Inhibition cGAS) lay in the range of 500 to 1000 nM.

`O=C(O)[C@@H]1CCCN1c1ncnc2c1oc1ccccc12` [Compound 4, benzofuro[3,2-d]pyrimidin-4-yl-L-proline]: the IC50 under setting [1] was > 10000 nM and the IC50 (read-out: Inhibition cGAS) was 1000 to 10000 nM.

`Cc1nc(N2C[C@@H](NC(=O)Cc3cccnc3)C[C@H]2C(=O)O)c2oc3ccccc3c2n1` [Compound 34, (2S,4S)-1-(2-methylbenzofuro[3,2-d]pyrimidin-4-yl)-4-(2-(pyridin-3-yl)acetamido)pyrrolidine-2-carboxylic acid]: the IC50 (read-out: Inhibition cGAS) is 500 to 1000 nM.

On to `Cc1nc(N2C[C@@H](Nc3n[nH]cc3C)C[C@H]2C(=O)O)c2oc3ccccc3c2n1` [Compound 27, (2S,4S)-4-((4-methyl-1H-pyrazol-3-yl)amino)-1-(2-methylbenzofuro[3,2-d]pyrimidin-4-yl)pyrrolidine-2-carboxylic acid], for which the IC50 (read-out: Inhibition cGAS) lay in the range of 100 to 500 nM.

For the molecule `Cc1nc(N2C[C@@H](Nc3n[nH]cc3-c3ccccn3)C[C@H]2C(=O)O)c2oc3ccccc3c2n1` [Compound 63, (2S,4S)-1-(2-methylbenzofuro[3,2-d]pyrimidin-4-yl)-4-((4-(pyridin-2-yl)-1H-pyrazol-3-yl)amino)pyrrolidine-2-carboxylic acid], the IC50 was in the range of 1000 to 10000 nM under setting [1] and 1000 to 10000 nM (read-out: Inhibition cGAS).

Consider `Cc1nc(N[C@@H](CCC(=O)O)C(=O)O)c2oc3ccccc3c2n1` [Compound 24, (2-methylbenzofuro[3,2-d]pyrimidin-4-yl)glutamic acid], for which the IC50 was > 10000 nM under setting [1] and 1000 to 10000 nM (read-out: Inhibition cGAS).

Turning to `Cc1nc(N2C[C@@H](NC(=O)Cc3cn[nH]c3)C[C@H]2C(=O)O)c2oc3ccccc3c2n1` [Compound 32, (2S,4S)-4-(2-(1H-pyrazol-4-yl)acetamido)-1-(2-methylbenzofuro[3,2-d]pyrimidin-4-yl)pyrrolidine-2-carboxylic acid], for the setting “read-out: Inhibition cGAS”, the IC50 lay in the range of 500 to 1000 nM.

(Values after patent US20220073532A1, “INHIBITORS OF CGAS ACTIVITY AS THERAPEUTIC AGENTS” (BELLBROOK LABS, LLC, priority 2019, published 2022).)
